Common to all, as to format: cell-based, human
One experiment relates to NCI-H358 (K-Ras G12C). The experiment can be described thus: CellTiter-Glo cell viability assay, H358. The protocol: (§1) Note—The following protocol describes a procedure for monitoring cell viability of K-Ras mutant cancer cell lines in response to a compound of the invention. Other RAS isoforms may be employed, though the number of cells to be seeded will vary based on cell line used.
(§2) Test compounds (132.5 nL) were directly dispensed into the assay plates containing cells. […] On day 5, assay plates and their contents were equilibrated to room temperature for approximately 30 minutes. […] Luminescence was measured using the PerkinElmer Enspire. Data were normalized by the following: (Sample signal/Avg. DMSO)*100. The data were fit using a four-parameter logistic fit.

Experiment [1] relates to AsPC-1 (K-Ras G12D). Description: Potency assay: pERK. In outline:
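pERK decrease measured after 4 h compound treatment at 37 °C (10 three-fold dilutions, duplicate wells), by either fixed-cell In-Cell Western with DRAQ5 counterstain or AlphaLISA on lysates. Signal fitted against log concentration with a four-parameter model to give IC50.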

Experiment [2] relates to AsPC-1 (K-Ras G12D). The experiment can be described thus: CellTiter-Glo cell viability assay, AsPC-1. The note with it: read-out: AsPC-1 Cell Viability IC50. As for the experimental part: as §1, §2
The mark [3] stands for this setting: Homo sapiens, NCI-H358, 120 h, read-out: H358 Cell Viability IC50, K-Ras G12C, 5-day treatment.
Setting [4] is: Homo sapiens, ASPC1, read-out: pERK EC50.

Structures are written as SMILES. pEC50, pIC50: −log10 of the molar value. Like-named read-outs stand apart in the source and are kept apart here.

The pIC50 is the IC50 on a negative log10 scale, so that one unit is a factor of ten. The pEC50 is the EC50 on a negative log10 scale, so that one unit is a factor of ten.

On to `CCn1c(-c2cccnc2[C@H](C)OC)c2c3cc(ccc31)-c1cc(O)cc(c1)C[C@H](NC(=O)[C@H](C(C)C)N(C)C(=O)CN(C)C(=O)[C@H]1N[C@@H]1C1CC1)C(=O)N1CCC[C@H](N1)C(=O)OCC(C)(C)C2` [Example 135], for which the pIC50 is 7.00 to 8.00 in the experiment on NCI-H358 (K-Ras G12C) (read-out: H358 Cell Viability IC50, K-Ras G12C, 5-day treatment) and 6.00 to 7.00 in the experiment on AsPC-1 (K-Ras G12D) [2] (Homo sapiens, ASPC1, 120 h). In the experiment on AsPC-1 (K-Ras G12D) [1] (read-out: pERK EC50, AsPC-1 KRAS G12D), the pEC50 was greater than 5.30.

Turning to `CCn1c(-c2cccnc2[C@H](C)OC)c2c3cc(ccc31)-c1cc(O)cc(c1)C[C@H](NC(=O)[C@H](C(C)C)N(C)C(=O)CN(C)C(=O)[C@H]1N[C@@H]1C1CC1)C(=O)N1CCC[C@H](N1)C(=O)OCC(C)(C)C2` [Example 136], the pIC50 was greater than 8.00 in the experiment on NCI-H358 (K-Ras G12C) (setting [3]) and 6.00 to 7.00 in the experiment on AsPC-1 (K-Ras G12D) [2] (K-Ras G12D, 5-day treatment). Further, the pEC50 in the experiment on AsPC-1 (K-Ras G12D) [1] (setting [4]) is greater than 5.30.

With `CCn1c(-c2cccnc2[C@H](C)OC)c2c3cc(ccc31)-c1cc(O)cc(c1)C[C@H](NC(=O)[C@H](C(C)C)N(C)C(=O)CN(C)C(=O)[C@@H]1CN1CCCOC)C(=O)N1CCC[C@H](N1)C(=O)OCC(C)(C)C2` (stereo partly drawn) [Example 137], the pIC50 with NCI-H358 (K-Ras G12C) (setting [3]) was greater than 8.00; in the experiment on AsPC-1 (K-Ras G12D) [2] (Homo sapiens, ASPC1, 120 h), 6.00 to 7.00. The pEC50 with AsPC-1 (K-Ras G12D) [1] (setting [4]) is greater than 5.30.

Take `CCn1c(-c2cccnc2[C@H](C)OC)c2c3cc(ccc31)-c1cc(O)cc(c1)C[C@H](NC(=O)[C@H](C(C)C)N(C)C(=O)CNC(=O)[C@@H]1N[C@@H]1C1CC1)C(=O)N1CCC[C@H](N1)C(=O)OCC(C)(C)C2` [Example 141]: the pIC50 is 6.00 to 7.00 with NCI-H358 (K-Ras G12C) (setting [3]) and 6.00 to 7.00 in the experiment on AsPC-1 (K-Ras G12D) [2] (Homo sapiens, ASPC1, 120 h). In addition, the pEC50 in the experiment on AsPC-1 (K-Ras G12D) [1] (setting [4]) is greater than 5.30.

With `CCn1c(-c2cccnc2[C@H](C)OC)c2c3cc(ccc31)-c1cc(O)cc(c1)C[C@H](NC(=O)[C@H](C(C)C)N(C)C(=O)CN(C)C(=O)[C@H]1CN1C(C)C)C(=O)N1CCC[C@H](N1)C(=O)OCC(C)(C)C2` (stereo partly drawn) [Example 142], the pIC50 with NCI-H358 (K-Ras G12C) (setting [3]) was greater than 8.00; in the experiment on AsPC-1 (K-Ras G12D) [2] (Homo sapiens, ASPC1, 120 h) it was 6.00 to 7.00. Moreover, in the experiment on AsPC-1 (K-Ras G12D) [1] (setting [4]), the negative-log EC50 (pEC50) is greater than 5.30.

For the compound `CCC(C)N(C)C(=O)c1cncc(-c2c3c4cc(ccc4n2CC)-c2cc(O)cc(c2)C[C@H](NC(=O)[C@H](C(C)C)N(C)C(=O)CN(C)C(=O)[C@H]2CN2)C(=O)N2CCC[C@H](N2)C(=O)OCC(C)(C)C3)c1` (stereo partly drawn) [Example 144], the pIC50 is 7.00 to 8.00 in the experiment with NCI-H358 (K-Ras G12C) (setting [3]) and 6.00 to 7.00 with AsPC-1 (K-Ras G12D) [2] (Homo sapiens, ASPC1, 120 h). Also, the pEC50 in the experiment with AsPC-1 (K-Ras G12D) [1] (setting [4]) is greater than 5.30.

Consider `CCn1c(-c2cccnc2[C@H](C)OC)c2c3cc(ccc31)-c1cc(O)cc(c1)C[C@H](NC(=O)[C@H](C(C)C)N(C)C(=O)CN(C)C(=O)[C@@H]1CN1C(C)C)C(=O)N1CCC[C@H](N1)C(=O)OCC(C)(C)C2` (stereo partly drawn) [Example 148], for which the negative-log IC50 (pIC50) with NCI-H358 (K-Ras G12C) (setting [3]) was greater than 8.00; in the experiment with AsPC-1 (K-Ras G12D) [2] (Homo sapiens, ASPC1, 120 h), 6.00 to 7.00. In the experiment with AsPC-1 (K-Ras G12D) [1] (setting [4]), the negative logarithm of the EC50 (pEC50) was greater than 5.30.

As to `CCn1c(-c2cccnc2[C@H](C)OC)c2c3cc(ccc31)-c1cc(O)cc(c1)C[C@H](NC(=O)[C@H](C(C)C)N(C)C(=O)CN(C)C(=O)[C@@H]1CN1)C(=O)N1CCC[C@H](N1)C(=O)OCC(C)(C)C2` [Example 150], the negative logarithm of the IC50 (pIC50) is greater than 8.00 in the experiment on NCI-H358 (K-Ras G12C) (setting [3]) and 6.00 to 7.00 in the experiment with AsPC-1 (K-Ras G12D) [2] (Homo sapiens, ASPC1, 120 h). Besides, the negative-log EC50 (pEC50) with AsPC-1 (K-Ras G12D) [1] (setting [4]) was greater than 5.30.

As to `CCn1c(-c2cccnc2[C@H](C)OC)c2c3cc(ccc31)-c1cc(O)cc(c1)C[C@H](NC(=O)[C@H](C(C)C)N(C)C(=O)CN(C)C(=O)[C@H]1CN1Cc1ccccc1F)C(=O)N1CCC[C@H](N1)C(=O)OCC(C)(C)C2` (stereo partly drawn) [Example 155], the pIC50 in the experiment on NCI-H358 (K-Ras G12C) (setting [3]) is greater than 8.00; in the experiment with AsPC-1 (K-Ras G12D) [2] (Homo sapiens, ASPC1, 120 h), 6.00 to 7.00. The pEC50 with AsPC-1 (K-Ras G12D) [1] (setting [4]) was greater than 5.30.

For the compound `CCn1c(-c2cccnc2[C@H](C)OC)c2c3cc(ccc31)-c1cc(O)cc(c1)C[C@H](NC(=O)[C@H](C(C)C)N(C)C(=O)CN(C)C(=O)[C@H]1CN1Cc1ccccc1CO)C(=O)N1CCC[C@H](N1)C(=O)OCC(C)(C)C2` (stereo partly drawn) [Example 156], the pIC50 with NCI-H358 (K-Ras G12C) (setting [3]) was greater than 8.00; with AsPC-1 (K-Ras G12D) [2] (Homo sapiens, ASPC1, 120 h) it was 6.00 to 7.00. Moreover, the pEC50 in the experiment on AsPC-1 (K-Ras G12D) [1] (setting [4]) was greater than 5.30.

Regarding `CCn1c(-c2cccnc2[C@H](C)OC)c2c3cc(ccc31)-c1cc(O)cc(c1)C[C@H](NC(=O)[C@H](C(C)C)N(C)C(=O)CN(C)C(=O)[C@H]1CN1CCOC)C(=O)N1CCC[C@H](N1)C(=O)OCC(C)(C)C2` (stereo partly drawn) [Example 159], the pIC50 in the experiment on NCI-H358 (K-Ras G12C) (setting [3]) is greater than 8.00; with AsPC-1 (K-Ras G12D) [2] (Homo sapiens, ASPC1, 120 h) it was 6.00 to 7.00. Further, the pEC50 with AsPC-1 (K-Ras G12D) [1] (setting [4]) is greater than 5.30.

(Values after patent publication US20250195521A1 (Revolution Medicines, Inc., priority 2020, published 2025).)
